Experimental data reported in PMC11356839, “The Synthesis of SNAC Phenolate Salts and the Effect on Oral Bioavailability of Semaglutide” (Molecules, 2024).
One block for each compound: values may come before it.

Columns and labels:
[1] = clinical study, cited from earlier work
Description: Preclinical studies reached similar conclusions, although with slightly different values. It is important to remember that the study model, as well as the specific drug being investigated, plays a role in the results, as the drug’s properties and size also affect its absorption. Semaglutide, being ...

[2] = rat, in vivo
Description: All compounds are powders.
IV solution was prepared by dissolving semaglutide in water containing disodium phosphate (0.014% w/v), propylene glycol (0.144% w/v), and phenol (0.056% w/v). The solution was diluted by 3 to reach semaglutide concentration of 0.046mg/mL and filtrated by a sterile 0.22 μm syringe filter.
Pharmacokinetic study protocol: Male Wistar rats (275–300 g, Harlan, Israel) were kept under a 12 h light/dark cycle, with free access to food and water. Animals were anesthetized, and an indwelling cannula was placed into the right jugular vein for systemic blood sampling. The cannula was tunneled beneath the skin and exteriorized at the dorsal part of the neck. The animals were transferred to individual cages to recover overnight (12–18 h). Throughout the experiments, free access to food was available 4 h post-oral administration.
Oral SNAC or salt formulations were dispersed in distilled water and then administrated by oral gavage (~1.2 mL for a rat to get semaglutide dose of 12 mg/kg). Blood samples (0.36 mL) were obtained by intravenous cannula, placed into the jugular vein. In the case of oral administration, samples were taken at 5 min pre-dose intervals and at different time points post-dose, according to the pharmacokinetic profile (no more than 10% of rat blood volume was drawn). To prevent dehydration, physiological solutions were administered, following each blood sampling. Plasma was separated by centrifugation (4000 rpm, 7 min, 4 °C) and stored at −20 °C until use.
Plasma samples were analyzed by a developed LC-MS method for semaglutide.
Absolute bioavailability values and other pharmacokinetic observations were assessed by comparison to intravenous bolus of semaglutide.
Semaglutide in plasma was performed in an Eppendorf® tube by mixing 150 μL of the plasma sample with 150 μL acetonitrile (ACN) and 15 μL of 5% formic acid (FA) and vortexed for 5 min. The tube was centrifuged at 15 °C, 6000 rpm for 6 min. Then, 160 μL of the supernatant was collected in a new tube. A second extraction was performed for the remaining precipitant by adding 60 μL of 5% FA, followed by mixing and centrifugation. Supernatant, 50 μL, was transferred into a tube. The solvent was evaporated to dryness, reconstituted with 50 μL 5% FA, and analyzed by an LC-MS system. Semaglutide standards were prepared by spiking semaglutide solutions in 5% FA into plasma to obtain final concentrations of 1–0.005 μg/mL. The same extraction procedure was performed on the standards as well.
MS/MS analyses were determined on a Sciex (Framingham, MA, USA) QTRAP® 6500^+ mass spectrometer). The chromatography analysis was performed using reverse-phase conditions using a Shimadzu (Kyoto, Japan) UHPLC System, consisting of a Shimadzu CBM-20A communication bus module, Nexera X2 LC-30AD pump, including a Shimadzu DGU-20A5R degasser, a Shimadzu SIL-30AC autosampler, and a Shimadzu CTO-20AC column oven. Liquid chromatography separation was obtained using 10 μL injections of samples onto an XBridge Peptide BEH C18 column (3.5 µm 300Å, 50 × 2.1 mm) from Waters Corp. (Milford, MA, USA), protected by a SecurityGuard™ (Phenomenex, Torrance, CA, USA) cartridge (C18, 2 × 2.1 mm). The column was maintained at 40 °C during the entire analysis. Gradient elution mobile phases consisted of 0.1% formic acid in water (Phase A) and 0.1% formic acid in methanol (Phase B). A flow rate of 0.2 mL/min was applied with a linear gradient from 60% to 80% B over 3.5 min and then held at 80% B for additional 4.5 min. The column was then equilibrated for 6 min at starting conditions prior to the injection of the next sample. The gradient elution program (0.2 mL/min) is described in Table 1.

[3] = dogs, semaglutide formulated with SNAC tablet; cited from earlier work
Description: The professional literature has contained studies concerning the mechanism of SNAC to enhance permeability. […] SNAC increases lipophilicity of the formulation and causes a local increase in pH via a buffering action.

Compound: vitamin B12
absolute absorption, formulation with SNAC ([1]; oral vitamin B12 affected by SNAC): 5%
absolute absorption, commercial product ([1]; oral vitamin B12 commercial product): 2%

AUC0−8 ([2]; po, 12 mg/kg): 5083 ± 1478 ng·h/mL
AUC0−∞ ([2]; po, 12 mg/kg): 7729 ± 2928 ng·h/mL
Cmax ([2]; po, 12 mg/kg): 945 ± 295 ng/mL
fold increase in AUC0−8 over the original SNAC formulation ([2]; po, 12 mg/kg): ~ 3 fold
fold increase in AUC0−∞ over the original SNAC formulation ([2]; po, 12 mg/kg): ~ 4 fold
fold increase in F% over the original SNAC formulation ([2]; po, 12 mg/kg): ~ 4 fold
Compound: SNAC–phosphatidylcholine [PC]

semaglutide absorption after oral administration not including SNACs [2]: negligible semaglutide absorption
Compound: CC[C@H](C)[C@H](NC(=O)[C@H](Cc1ccccc1)NC(=O)[C@H](CCC(=O)O)NC(=O)[C@H](CCCCNC(=O)COCCOCCNC(=O)COCCOCCNC(=O)CC[C@H](NC(=O)CCCCCCCCCCCCCCCCC(=O)O)C(=O)O)NC(=O)[C@H](C)NC(=O)[C@H](C)NC(=O)[C@H](CCC(N)=O)NC(=O)CNC(=O)[C@H](CCC(=O)O)NC(=O)[C@H](CC(C)C)NC(=O)[C@H](Cc1ccc(O)cc1)NC(=O)[C@H](CO)NC(=O)[C@H](CO)NC(=O)[C@@H](NC(=O)[C@H](CC(=O)O)NC(=O)[C@H](CO)NC(=O)[C@@H](NC(=O)[C@H](Cc1ccccc1)NC(=O)[C@@H](NC(=O)CNC(=O)[C@H](CCC(=O)O)NC(=O)C(C)(C)NC(=O)[C@@H](N)Cc1cnc[nH]1)[C@@H](C)O)[C@@H](C)O)C(C)C)C(=O)N[C@@H](C)C(=O)N[C@@H](Cc1c[nH]c2ccccc12)C(=O)N[C@@H](CC(C)C)C(=O)N[C@H](C(=O)N[C@@H](CCCNC(=N)N)C(=O)NCC(=O)N[C@@H](CCCNC(=N)N)C(=O)NCC(=O)O)C(C)C [semaglutide, Semaglutide]
semaglutide concentration underneath the tablet compared to 6 cm at a further distance [3]: 10 fold
